From ChEMBL document CHEMBL1149678, “Synthesis and structure-activity relationship of RXR antagonists based on the diazepinylbenzoic acid structure” (Bioorg Med Chem Lett, 2007)

The compounds below were run against T1, Retinoic acid receptor RXR-alpha (Homo sapiens, UniProt P19793) (assay: Antagonist activity at human RXRalpha expressed in […] cells assessed as inhibition of LG-100268-induced transactivation).
T1 sequence (P19793 whole entry): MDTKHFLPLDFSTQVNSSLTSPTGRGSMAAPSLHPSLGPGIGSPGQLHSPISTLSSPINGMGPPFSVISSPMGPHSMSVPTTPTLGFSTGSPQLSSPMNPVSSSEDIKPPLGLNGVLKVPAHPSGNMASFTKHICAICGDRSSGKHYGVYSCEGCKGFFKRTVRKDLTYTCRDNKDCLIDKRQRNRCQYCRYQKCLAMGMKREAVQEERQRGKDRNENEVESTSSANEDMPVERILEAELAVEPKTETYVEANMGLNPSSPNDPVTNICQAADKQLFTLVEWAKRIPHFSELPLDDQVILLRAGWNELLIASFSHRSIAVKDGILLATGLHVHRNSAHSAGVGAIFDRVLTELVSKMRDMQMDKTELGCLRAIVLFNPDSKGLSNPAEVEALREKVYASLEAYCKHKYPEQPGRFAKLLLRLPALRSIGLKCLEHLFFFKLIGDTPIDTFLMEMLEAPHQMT
Assay type: functional, cell-based, HEK293
For `CN1c2ccc(NS(=O)(=O)c3cc(C(F)(F)F)cc(C(F)(F)F)c3)cc2N=C(c2ccc(C(=O)O)cc2)c2cc3c(cc21)C(C)(C)CCC3(C)C`, the IC50 was 4100 nM. `CN1c2ccc(NS(=O)(=O)c3cccc4ccccc34)cc2N=C(c2ccc(C(=O)O)cc2)c2cc3c(cc21)C(C)(C)CCC3(C)C` gave an IC50 of 3400 nM. `CN1c2ccc(NS(=O)(=O)c3ccc(-c4ccccc4)cc3)cc2N=C(c2ccc(C(=O)O)cc2)c2cc3c(cc21)C(C)(C)CCC3(C)C` gave an IC50 of 6200 nM. Compound `CCCS(=O)(=O)Nc1ccc2c(c1)N=C(c1ccc(C(=O)O)cc1)c1cc3c(cc1N2C)C(C)(C)CCC3(C)C` has an IC50 of 2100 nM. Compound `CN1c2ccc(NC(=O)c3ccc(F)cc3)cc2N=C(c2ccc(C(=O)O)cc2)c2cc3c(cc21)C(C)(C)CCC3(C)C` has an IC50 of 1600 nM. Compound `CN1c2ccc(NC(=O)Cc3ccccc3)cc2N=C(c2ccc(C(=O)O)cc2)c2cc3c(cc21)C(C)(C)CCC3(C)C` has an IC50 of 2500 nM. `CN1c2ccc(NS(=O)(=O)c3cccc(C(F)(F)F)c3)cc2N=C(c2ccc(C(=O)O)cc2)c2cc3c(cc21)C(C)(C)CCC3(C)C` showed an IC50 of 1500 nM. For `CCCNC(=O)Nc1ccc2c(c1)N=C(c1ccc(C(=O)O)cc1)c1cc3c(cc1N2C)C(C)(C)CCC3(C)C`, the IC50 was 5200 nM. Compound `CN1c2ccc(NS(=O)(=O)c3ccc(C(F)(F)F)cc3)cc2N=C(c2ccc(C(=O)O)cc2)c2cc3c(cc21)C(C)(C)CCC3(C)C` has an IC50 of 2200 nM. Work on `CN1c2ccc(NC(=O)Cc3ccc(F)cc3)cc2N=C(c2ccc(C(=O)O)cc2)c2cc3c(cc21)C(C)(C)CCC3(C)C` yielded an IC50 of 1300 nM. Compound `CN1c2ccc(NC(=O)C34CC5CC(CC(C5)C3)C4)cc2N=C(c2ccc(C(=O)O)cc2)c2cc3c(cc21)C(C)(C)CCC3(C)C` has an IC50 of 7200 nM. `CN1c2ccc(NS(=O)(=O)c3ccccc3)cc2N=C(c2ccc(C(=O)O)cc2)c2cc3c(cc21)C(C)(C)CCC3(C)C` showed an IC50 of 1400 nM. For `CN1c2ccc(NS(=O)(=O)c3cccc(F)c3)cc2N=C(c2ccc(C(=O)O)cc2)c2cc3c(cc21)C(C)(C)CCC3(C)C`, the IC50 was 2300 nM. In the case of `CCCCS(=O)(=O)Nc1ccc2c(c1)N=C(c1ccc(C(=O)O)cc1)c1cc3c(cc1N2CC)C(C)(C)CCC3(C)C`, the IC50 is reported as 320 nM. In the case of `CN1c2ccc(NC(=O)/C=C/c3ccccc3)cc2N=C(c2ccc(C(=O)O)cc2)c2cc3c(cc21)C(C)(C)CCC3(C)C`, the IC50 is reported as 5200 nM. Work on `CCN1c2ccc(NS(=O)(=O)c3ccc(F)cc3)cc2N=C(c2ccc(C(=O)O)cc2)c2cc3c(cc21)C(C)(C)CCC3(C)C` yielded an IC50 of 420 nM. `CCCN1c2ccc(NS(=O)(=O)c3ccc(F)cc3)cc2N=C(c2ccc(C(=O)O)cc2)c2cc3c(cc21)C(C)(C)CCC3(C)C` showed an IC50 of 810 nM. Compound `COc1ccc(S(=O)(=O)Nc2ccc3c(c2)N=C(c2ccc(C(=O)O)cc2)c2cc4c(cc2N3C)C(C)(C)CCC4(C)C)cc1` has an IC50 of 2500 nM. In the case of `CN1c2ccc(NS(=O)(=O)Cc3ccccc3)cc2N=C(c2ccc(C(=O)O)cc2)c2cc3c(cc21)C(C)(C)CCC3(C)C`, the IC50 is reported as 5200 nM. `CCCC(=O)Nc1ccc2c(c1)N=C(c1ccc(C(=O)O)cc1)c1cc3c(cc1N2C)C(C)(C)CCC3(C)C` was tested, and the IC50 was 3900 nM. In the case of `CCS(=O)(=O)Nc1ccc2c(c1)N=C(c1ccc(C(=O)O)cc1)c1cc3c(cc1N2C)C(C)(C)CCC3(C)C`, the IC50 is reported as 4900 nM. Work on `CCCCNc1ccc2c(c1)N=C(c1ccc(C(=O)O)cc1)c1cc3c(cc1N2C)C(C)(C)CCC3(C)C` yielded an IC50 greater than 100000 nM. With `CNC(=O)Nc1ccc2c(c1)N=C(c1ccc(C(=O)O)cc1)c1cc3c(cc1N2C)C(C)(C)CCC3(C)C` the IC50 was 14000 nM. `Cc1ccc(S(=O)(=O)Nc2ccc3c(c2)N=C(c2ccc(C(=O)O)cc2)c2cc4c(cc2N3C)C(C)(C)CCC4(C)C)cc1` gave an IC50 of 2500 nM.

What follows are compounds tested against T1, Retinoic acid receptor RXR-alpha (assay: Antagonist activity at human RXRalpha expressed in […] cells assessed as inhibition of 9-cis-retinoic acid-induced transactivation).
Assay type: functional, cell-based, HEK293
`CN1c2ccc(NS(=O)(=O)c3cc(C(F)(F)F)cc(C(F)(F)F)c3)cc2N=C(c2ccc(C(=O)O)cc2)c2cc3c(cc21)C(C)(C)CCC3(C)C` showed an IC50 of 1200 nM. With `CN1c2ccc(NS(=O)(=O)c3cccc4ccccc34)cc2N=C(c2ccc(C(=O)O)cc2)c2cc3c(cc21)C(C)(C)CCC3(C)C` the IC50 was 850 nM. `CN1c2ccc(NS(=O)(=O)c3ccc(-c4ccccc4)cc3)cc2N=C(c2ccc(C(=O)O)cc2)c2cc3c(cc21)C(C)(C)CCC3(C)C` gave an IC50 of 1300 nM. `CCCS(=O)(=O)Nc1ccc2c(c1)N=C(c1ccc(C(=O)O)cc1)c1cc3c(cc1N2C)C(C)(C)CCC3(C)C` showed an IC50 of 250 nM. Work on `CN1c2ccc(NC(=O)c3ccc(F)cc3)cc2N=C(c2ccc(C(=O)O)cc2)c2cc3c(cc21)C(C)(C)CCC3(C)C` yielded an IC50 of 1700 nM. For `CN1c2ccc(NC(=O)Cc3ccccc3)cc2N=C(c2ccc(C(=O)O)cc2)c2cc3c(cc21)C(C)(C)CCC3(C)C`, the IC50 was 970 nM. `CN1c2ccc(NS(=O)(=O)c3cccc(C(F)(F)F)c3)cc2N=C(c2ccc(C(=O)O)cc2)c2cc3c(cc21)C(C)(C)CCC3(C)C` was tested, and the IC50 was 480 nM. `CCCNC(=O)Nc1ccc2c(c1)N=C(c1ccc(C(=O)O)cc1)c1cc3c(cc1N2C)C(C)(C)CCC3(C)C` was tested, and the IC50 was 6200 nM. With `CN1c2ccc(NS(=O)(=O)c3ccc(C(F)(F)F)cc3)cc2N=C(c2ccc(C(=O)O)cc2)c2cc3c(cc21)C(C)(C)CCC3(C)C` the IC50 was 1100 nM. In the case of `CN1c2ccc(NC(=O)Cc3ccc(F)cc3)cc2N=C(c2ccc(C(=O)O)cc2)c2cc3c(cc21)C(C)(C)CCC3(C)C`, the IC50 is reported as 880 nM. `CN1c2ccc(NC(=O)C34CC5CC(CC(C5)C3)C4)cc2N=C(c2ccc(C(=O)O)cc2)c2cc3c(cc21)C(C)(C)CCC3(C)C` was tested, and the IC50 was 2900 nM. For `CN1c2ccc(NS(=O)(=O)c3ccccc3)cc2N=C(c2ccc(C(=O)O)cc2)c2cc3c(cc21)C(C)(C)CCC3(C)C`, the IC50 was 510 nM. Compound `CN1c2ccc(NS(=O)(=O)c3cccc(F)c3)cc2N=C(c2ccc(C(=O)O)cc2)c2cc3c(cc21)C(C)(C)CCC3(C)C` has an IC50 of 1200 nM. With `CCCCS(=O)(=O)Nc1ccc2c(c1)N=C(c1ccc(C(=O)O)cc1)c1cc3c(cc1N2CC)C(C)(C)CCC3(C)C` the IC50 was 200 nM. `CN1c2ccc(NC(=O)/C=C/c3ccccc3)cc2N=C(c2ccc(C(=O)O)cc2)c2cc3c(cc21)C(C)(C)CCC3(C)C` was tested, and the IC50 was 1500 nM. `CCN1c2ccc(NS(=O)(=O)c3ccc(F)cc3)cc2N=C(c2ccc(C(=O)O)cc2)c2cc3c(cc21)C(C)(C)CCC3(C)C` was tested, and the IC50 was 220 nM. In the case of `CCCN1c2ccc(NS(=O)(=O)c3ccc(F)cc3)cc2N=C(c2ccc(C(=O)O)cc2)c2cc3c(cc21)C(C)(C)CCC3(C)C`, the IC50 is reported as 130 nM. Compound `COc1ccc(S(=O)(=O)Nc2ccc3c(c2)N=C(c2ccc(C(=O)O)cc2)c2cc4c(cc2N3C)C(C)(C)CCC4(C)C)cc1` has an IC50 of 470 nM. `CN1c2ccc(NS(=O)(=O)Cc3ccccc3)cc2N=C(c2ccc(C(=O)O)cc2)c2cc3c(cc21)C(C)(C)CCC3(C)C` gave an IC50 of 1000 nM. With `CCCC(=O)Nc1ccc2c(c1)N=C(c1ccc(C(=O)O)cc1)c1cc3c(cc1N2C)C(C)(C)CCC3(C)C` the IC50 was 1800 nM. `CCS(=O)(=O)Nc1ccc2c(c1)N=C(c1ccc(C(=O)O)cc1)c1cc3c(cc1N2C)C(C)(C)CCC3(C)C` gave an IC50 of 840 nM. `CCCCNc1ccc2c(c1)N=C(c1ccc(C(=O)O)cc1)c1cc3c(cc1N2C)C(C)(C)CCC3(C)C` showed an IC50 greater than 10000 nM. Compound `CNC(=O)Nc1ccc2c(c1)N=C(c1ccc(C(=O)O)cc1)c1cc3c(cc1N2C)C(C)(C)CCC3(C)C` has an IC50 of 15000 nM. In the case of `Cc1ccc(S(=O)(=O)Nc2ccc3c(c2)N=C(c2ccc(C(=O)O)cc2)c2cc4c(cc2N3C)C(C)(C)CCC4(C)C)cc1`, the IC50 is reported as 430 nM.
